Results taken from patent US10226413B2, “Solution solubilization composition of insoluble material and method for solubilizing insoluble material using same” (Damy Chemical Co., Ltd., priority 2013, dated 2019).

Protocol: The turbidity of each lotion was measured using a spectrophotometer at 620 nm. A high turbidity of a liquid indicates cloudiness of the liquid and a low turbidity of a liquid indicates high transparency of the liquid. The turbidity (optical density) of the lotion was measured in the range of 0.01-1.0.
The amount of light passing through each solution was measured. The transmittance (T, %) of the solution for light was calculated as follows. First, the measured absorbance was substituted into -log t=A (absorbance, O.D). Since t is always not greater than 1, the transmittance (T) was calculated and expressed in percentage by T (%)=t×100. The transmittance is between 1 and 100%. The higher the transmittance, the higher the transparency. The transmittance of purified water was defined as 100%.

| Structure (SMILES) | solubilization in water by the composition (turbidity and transmittance) |
| --- | --- |
| COC1=C(OC)C(=O)C(C/C=C(\C)CC/C=C(\C)CC/C=C(\C)CC/C=C(\C)CC/C=C(\C)CC/C=C(\C)CC/C=C(\C)CC/C=C(\C)CC/C=C(\C)CCC=C(C)C)=C(C)C1=O [ubiquinone] | can solubilize |
| C[C@@H]1O[C@@H](OC[C@H]2O[C@@H](Oc3c(-c4ccc(O)c(O)c4)oc4cc(O)cc(O)c4c3=O)[C@H](O)[C@@H](O)[C@@H]2O)[C@H](O)[C@H](O)[C@H]1O [rutin] | can solubilize |
